Measured values taken from patent publication US20240252677A1, “ONE-COMPONENT DELIVERY SYSTEM FOR NUCLEIC ACIDS” (The Trustees of the University of Pennsylvania, priority 2021, published 2024).

What was measured:
[1] = Dimensions (size, PDI) of DNPs co-assembled from IAJDs and Luc-mRNA by DLS; assay type: physicochemical
Description: Dynamic Light Scattering (DLS) for the DNPs was performed in buffer with a Malvern Instruments particle sizer (Zetasizer Nano S, Malvern Instruments, UK) equipped with 4 mW He—Ne laser 633 nm and avalanche photodiode positioned at […] to the beam and temperature-controlled cuvette holder. Instrument parameters were determined automatically along with measurement times.
Formulation of DNPs Containing mRNA-Luc: IAJDs were dissolved in ethanol with various initial concentrations (5-160 mg/mL). Nucleoside-modified mRNA encoding firefly luciferase (mRNA-Luc) was dissolved in water with various initial concentrations (1-4 mg/mL). 12.5 μL of mRNA solution was placed into a clean RNAs free eppendorf (1.5 mL) and mixed with 463 μL of citrate buffer (10 mM, pH 3.0)/acetate buffer (10 mM). For encapsulation of mRNA into IAJDs, 25 μL of IAJDs of the ethanol stock solution was rapidly injected into mRNA solution in citrate or acetate buffer followed by vortex for 5 seconds.
(§1) Dynamic Light Scattering (DLS) for the sizes and polydispersities of DNPs was performed on a Malvern Instruments particle sizer (Zetasizer Nano S, Malvern Instruments, UK) equipped with 4 mW He—Ne laser 633 nm and avalanche photodiode positioned at 1750 to the beam and temperature-controlled cuvette holder. Instrument parameters were determined automatically along with measurement times. Sample solution (0.4 mL) was placed in a semi-micro cuvette (1.6 mL, polystyrene, 10×10×45 mm, manufactured by Greiner Bio-One) and the measurements were performed at 23° C.
Formulation of DNPs obtained by co-assembly of IAJDs and Luc-mRNA was performed as follows. IAJDs were dissolved in ethanol with an initial concentration of 80 mg/mL. Nucleoside-modified mRNA encoding firefly luciferase (Luc-mRNA) was dissolved in UltraPure DNase/RNase-free distilled water with an initial concentration of 4.0 mg/mL. 12.5 μL of Luc-mRNA solution was placed into a clean RNAs free eppendorf (1.5 mL) and 463 μL acetate buffer (10 mM, pH 4.0) was added. Then, 25 μL of IAJD in the ethanol stock solution was rapidly injected into the Luc-mRNA solution in acetate buffer followed by vortex for 5 seconds.
as §1, with “dimensions (sizes” for “sizes”, “polydispersities)” for “polydispersities”, “175°” for “1750”, “set up” for “determined”, “(c.a. 0.4” for “(0.4”, “mm,” for “mm, manufactured by”
Formulation of DNPs Co-assembled from IAJDs and Luc-mRNA: nucleoside-modified mRNA encoding firefly luciferase (Luc-mRNA) was dissolved in UltraPure DNase/RNase-free distilled water with an initial concentration of 4.0 mg/mL. IAJD molecules were dissolved in ethanol with an initial concentration of 80 mg/mL. 12.5 μL of Luc-mRNA solution was taken and placed into a clean RNAs free eppendorf (1.5 mL). Then 463 μL of acetate buffer (10 mM, pH 4.0) was added. Afterwards, 25 μL of IAJD in the ethanol stock solution was taken and rapidly injected into the above Luc-mRNA solution in acetate buffer followed by vortex for 5 seconds.

lung = assay: In vivo mRNA delivery, IVIS imaging of organs: lung; design: species or system mice; key to Organs with luminescence: lung: strong: Strong meant the luminescence intensity in that organ was relatively high, compared to other organs; weak: Weak meant the luminescence intensity in that organ was relatively low, compared to other organs; details: mice; for Organs with luminescence: lung: Table 17, IVIS, 4-6 h after injection, intensity relative to other organs; for activity in lung (in words): Luc-mRNA DNPs
Description: (§2) The exposure time was 1 min.
(§3) Tissue luminescence signal was measured on the IVIS imaging system using an exposure time of 60 seconds using medium binning (binning=8) to ensure that the signal obtained was within operative detection range. […] Bioluminescence imaging was performed as described above.
(§4) Tissue luminescence signal was measured on the IVIS imaging system using a certain exposure time (60, 30 or 15 seconds) and medium binning (binning=8) to ensure that the signal obtained was within operative detection range.

[2] = Stability of DNPs by DLS after storage at 5° C.; assay type: physicochemical; design: key to Original size distribution type (DLS curve) / Size distribution type (DLS curve): U: DLS curve showed unimodal size distribution; B: DLS curve showed bimodal size distribution; M: DLS curve showed multimodal size distribution; details: for pH Sample: DNPs: IAJD 4.0 mg/mL + Luc-mRNA 0.1 mg/mL, injection in acetate buffer pH 4.00; for PDI / Size (d, nm) / Original size distribution type (DLS curve): IAJD 4.0 mg/mL + Luc-mRNA 0.1 mg/mL; for PDI / Size (d, nm): acetate buffer; for Original size distribution type (DLS curve): before storage, acetate buffer pH 4.00
Description: The stability of the DNPs as assayed by DLS. All the samples are prepared in acetate buffer. The stabilities of the constructs were ranked: Excellent (in bold)—the original sizes and distribution remains almost the same after storage; Good—the original relatively big sizes became smaller or broad size distribution became narrower; Not stable—the original relatively big sizes or broad size distribution remained almost the similar level, or the original relatively small sizes became bigger or narrow size distribution became broader.

spleen = assay: In vivo mRNA delivery, IVIS imaging of organs: spleen; design: species or system mice; key to Organs with luminescence: spleen: strong: Strong meant the luminescence intensity in that organ was relatively high, compared to other organs; weak: Weak meant the luminescence intensity in that organ was relatively low, compared to other organs; details: Table 17; mice, IVIS, 4-6 h after injection; intensity relative to other organs
Description: as §2, §3, §4

[3] = Table 16, DNPs from IAJD 4 mg/mL and Luc-mRNA 0.10 mg/mL by injection in acetate buffer (10 mM, pH 4.0)
[4] = Table 17, DNPs used in vivo, IAJD 4 mg/mL, Luc-mRNA 0.10 mg/mL, acetate pH 4.0
[5] = Acetate buffer 10 mM pH 4.0, CIAJD 4 mg/mL, CLuc-mRNA 0.05 mg/mL
[6] = Acetate buffer 10 mM pH 4.0, CIAJD 4 mg/mL, CLuc-mRNA 0.10 mg/mL
[7] = DNP for in vivo, CIAJD 4.0 mg/mL, CLuc-mRNA 0.1 mg/mL, acetate buffer pH 4.0
[8] = storage time 2 days, CIAJD 4.0 mg/mL, CLuc-mRNA 0.1 mg/mL, acetate buffer pH 4.0

Row | Compound | PDI [1, 3] | Size (d, nm) [1, 3] [nm] | PDI [1, 4] | Size (d, nm) [1, 4] [nm] | Organs with luminescence: lung (lung) | pH Sample [2] | Original size distribution type (DLS curve) [2] | Size distribution type (DLS curve) ([2]; after 19 days at 5° C.) | PDI ([2]; after 19 days at 5° C.) | Size (d, nm) ([2]; after 19 days at 5° C.) [nm] | other results
1 | CCCCCCCCCCCCOc1cc(COC(=O)c2cc(OCCOCCOCCCC(=O)CCCN3CCCCC3)c(OCCOCCOCCOCc3ccccc3)c(OCCOCCOCCOC(=O)CCCN3CCCCC3)c2)cc(OCCCCCCCCCCCC)c1 [IAJD 110] | 0.274 | 111 | 0.274 | 111 | Lung (strong) | 4.91 | (U) | – | – | – | activity in lung (in words) (lung): very high activity to lung; Size distribution type (DLS curve) ([2]; after 75 days at 5° C.): (U); PDI ([2]; after 75 days at 5° C.): 0.222; Size (d, nm) ([2]; after 75 days at 5° C.): 103 nm
2 | CCCCCCCCCCCOc1cc(COC(=O)c2cc(OCCOCCOCCCC(=O)CCCN3CCCCC3)c(OCCOCCOCCOCc3ccccc3)c(OCCOCCOCCOC(=O)CCCN3CCCCC3)c2)cc(OCCCCCCCCCCC)c1 [IAJD 111] | 0.232 | 99 | 0.232 | 99 | Lung (strong), | 4.84 | (U) | – | – | – | activity in lung (in words) (lung): very high activity to lung; Size distribution type (DLS curve) ([2]; after 75 days at 5° C.): (U); PDI ([2]; after 75 days at 5° C.): 0.227; Size (d, nm) ([2]; after 75 days at 5° C.): 96 nm; Organs with luminescence: spleen (spleen): spleen (weak)
3 | CCCCCCCCCCCCCCOc1cc(CNC(=O)CCCN2CCN(C)CC2)cc(OCCCCCCCCCCC)c1 [IAJD 133, 4-(4-Methylpiperazin-1-yl)-N-(3-(tetradecyloxy)-5-(undecyloxy)benzyl)butanamide] | 0.414 | 228 | 0.414 | 228 | Lung (strong), | 4.63 | (B) | – | – | – | Size distribution type (DLS curve) ([2]; after 42 days at 5° C.): (B); PDI ([2]; after 42 days at 5° C.): 0.454; Size (d, nm) ([2]; after 42 days at 5° C.): 216 nm; Organs with luminescence: spleen (spleen): spleen (weak)
4 | CCCCCCCCCCCCCCOc1cc(COC(=O)c2cc(OCCOCCOCCCC(=O)CCCN3CCCCC3)c(OCCOCCOCCOCc3ccccc3)c(OCCOCCOCCOC(=O)CCCN3CCCCC3)c2)cc(OCCCCCCCCCCC)c1 [IAJD 156] | 0.236 | 75 | 0.236 | 75 | Lung (strong) | 4.82 | (U) | (U) | 0.242 | 78 | –
5 | CCCCCCCCCCCCCCCOc1cc(COC(=O)c2cc(OCCOCCOCCCC(=O)CCCN3CCCCC3)c(OCCOCCOCCOCc3ccccc3)c(OCCOCCOCCOC(=O)CCCN3CCCCC3)c2)cc(OCCCCCCCCCCC)c1 [IAJD 157] | 0.238 | 68 | 0.238 | 68 | Lung (strong) | 4.84 | (U) | (U) | 0.255 | 71 | –
6 | CCCCCCCCCCCCCCCCCOc1cc(COC(=O)c2cc(OCCOCCOCCCC(=O)CCCN3CCCCC3)c(OCCOCCOCCOCc3ccccc3)c(OCCOCCOCCOC(=O)CCCN3CCCCC3)c2)cc(OCCCCCCCCCCC)c1 [IAJD 158] | 0.246 | 75 | 0.246 | 75 | Lung (strong) | 4.83 | (U) | (U) | 0.258 | 77 | –
7 | Diheptyl 5,5′-((5-(((4-(4-methylpiperazin-1-yl)butanoyl)oxy)methyl)-1,3-phenylene)bis(oxy)) dipentanoate [IAJD 85] | – | – | – | – | – | – | – | – | – | – | PDI [1, 5]: 0.352; Size (d, nm) [1, 5]: 99 nm; PDI [1, 6]: 0.254; Size (d, nm) [1, 6]: 115 nm; PDI ([1]; Citrate buffer 10 mM pH 3.0, CIAJD 4 mg/mL, CLuc-mRNA 0.05 mg/mL): 0.361; PDI [1, 7]: 0.254; Size (d, nm) [1, 7]: 115 nm; PDI after storage [2, 8]: 0.271; Size (d, nm) after storage [2, 8]: 114 nm
